Publication PMC5508536 (Bioorganic & medicinal chemistry letters, 2017)
Blank lines part the entries; values can stand above or below the compound they belong to.

Legend:
rat M5 = biological target: T1, rat M5 (Rattus norvegicus, UniProt P08911); assay: rat M5 intracellular calcium mobilization assay; assay type: cell-based
T1 sequence (P08911 1-531): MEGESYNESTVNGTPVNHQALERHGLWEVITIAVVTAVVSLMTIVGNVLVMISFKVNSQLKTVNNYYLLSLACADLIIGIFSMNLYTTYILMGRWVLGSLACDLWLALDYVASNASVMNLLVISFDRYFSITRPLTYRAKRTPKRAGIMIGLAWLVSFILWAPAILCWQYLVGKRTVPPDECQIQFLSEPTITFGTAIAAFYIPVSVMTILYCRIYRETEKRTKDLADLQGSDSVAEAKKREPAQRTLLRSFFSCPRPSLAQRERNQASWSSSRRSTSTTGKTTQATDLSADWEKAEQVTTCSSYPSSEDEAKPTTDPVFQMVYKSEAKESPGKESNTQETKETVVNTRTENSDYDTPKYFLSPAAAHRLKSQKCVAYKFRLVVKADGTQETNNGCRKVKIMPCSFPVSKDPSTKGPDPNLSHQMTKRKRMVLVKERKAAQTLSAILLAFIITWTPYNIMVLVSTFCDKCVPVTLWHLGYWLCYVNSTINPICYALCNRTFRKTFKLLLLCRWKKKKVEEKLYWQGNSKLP

[1] = cited from earlier work
[2] = rat; cited from earlier work

rat M5 potency relative to hM5 (rat M5): ≤ 2 fold
Compound: O=C(c1ccc(F)c(F)c1)N1CCN2C(=O)c3ccccc3[C@@]12c1ccc(N2CCCC(F)(F)C2)cc1 [4d]

rat M5 potency relative to hM5 (rat M5): ≤ 2 fold
Compound: O=C(c1ccc(F)c(F)c1)N1CCN2C(=O)c3ccccc3[C@@]12c1ccc(N2CCC(F)(F)CC2)cc1 [4f]

Compound: COc1ccc([C@@]23c4ccccc4C(=O)N2CCN3C(=O)c2cc(F)c(F)c(F)c2)cc1C [compound 2]
CLp ([1]; rat PK): > 70 mL/min/kg
CNS penetration [2]: limited CNS penetration

Compound: O=C(c1ccc(F)c(F)c1)N1CCN2C(=O)c3ccccc3[C@@]12c1ccc(Cl)cc1 [compound 1]
elimination half-life t1/2 ([1]; rat): 80 h
